The source of these data is US9611230B2, “1,3,4-oxadiazole benzoic acid compounds and their use for nonsense suppression and the treatment of disease” (PTC Therapeutics, Inc., priority 2004, dated 2017).

For data set [1], the system named is full-length luciferase protein produced by suppression of the premature termination codon. The data set can be described thus: Western blot of full-length luciferase after immunoprecipitation (epitope-tagged nonsense constructs). It is filed as cell-based, Human. The conditions noted are these: printed in the UAAA column of Table 3. An excerpt:
The nonsense suppression activity in an assay as described above is shown in the Table 3 below, for a construct with a UAG nonsense mutation at position 190, followed by an adenine nucleotide in-frame, (UAGA); and a construct with a UAA nonsense mutation at position 190, followed by an adenine nucleotide in-frame, (UAAA).
Another assay of the present invention can evaluate compounds that promote nonsense mutation suppression. The luciferase constructs described above in FIG. 1 are engineered to harbor two epitope tags in the N-terminus of the luciferase protein. Based on luciferase protein production, these constructs qualitatively assess the level of translation-readthrough. The presence of the full-length luciferase protein produced by suppression of the premature termination codon is measured by immunoprecipitation of the suppressed luciferase protein (using an antibody against a His tag) followed by western blotting using an antibody against the second epitope (the Xpress™ epitope; Invitrogen®; Carlsbad, Calif.). These constructs are depicted in FIG. 2.
Cells that harbor the constructs of FIG. 2 show increased full-length protein production when treated with a compound of the present invention. After treatment for 20 hours, cells containing the constructs of FIG. 2 are collected and an antibody recognizing the His epitope is used to immunoprecipitate the luciferase protein. Following immunoprecipitation, western blotting is performed using the antibody to the Xpress™ epitope (Invitrogen®; Carlsbad, Calif.) to detect the truncated luciferase (produced when no nonsense suppression occurs) and to detect the full-length protein (produced by suppression of the nonsense codon). Treatment of cells with a test compound produces full-length protein and not a readthrough protein (See e.g. FIG. 3). The readthrough protein is produced if suppression of the normal termination codon occurs. Compounds of the present invention suppress the premature, i.e. nonsense mutation, but not the normal termination codon in the luciferase mRNA.

Several values for one entry are separate records, joined by “and”; a condition that tells them apart may be missing. Equal entries are not always repeated.

Regarding `CCOc1ccc(-c2cnc(-c3cccc(C(=O)O)c3)o2)cc1` [Compound 595], the melting point fell in the range of 223 to 224 °C. Moreover, in data set [1], the “western blot signal (POS WB)” value was “POSWB”.
Molecule `O=C(O)c1cccc(-c2cc(-c3ccc(Cl)cc3)on2)c1` [Compound No. 479, 3-[5-(4-chlorophenyl)isoxazol-3-yl]benzoic acid] registered a melting point of 293 to 295 °C. For the same molecule, the “western blot signal (POS WB)” value in data set [1] is “POSWB”.
Turning to `O=C(O)c1ccc(-c2ncc(-c3ccc(F)cc3F)o2)cc1` [Compound No. 548, 4-[5-(2,4-difluorophenyl)oxazol-2-yl]benzoic acid], the melting point was 298 to 299 °C and 301 to 302 °C. Besides, in data set [1], the “western blot signal (POS WB)” value is recorded as “POSWB”.

As usually defined, the melting point is the temperature of the solid-liquid transition.
